In patent publication US9112158B1, “Asymmetric styrene derivatives having carbazole and aniline and organic light emitting diode using the same” (National Tsing Hua University, priority 2014, dated 2015):

Experiment: solubility of the compound in toluene
Format: physicochemical

Row | Solubility | Structure (SMILES)
1 | >1 wt % | C(=C\c1ccc(N(c2ccccc2)c2ccccc2)cc1)/c1ccc(-c2ccc(/C=C/c3ccc4c(c3)c3ccccc3n4-c3ccccc3)cc2)cc1 [PCzDPA, N,N-diphenyl-4-[(E)-2-(4-{4-[(E)-2-(9-phenyl-9H-carbazol-3-yl)ethenyl]phenyl}phenyl)ethenyl]aniline]
2 | >1 wt % | C(=C\c1ccc(N(c2ccccc2)c2cccc3ccccc23)cc1)/c1ccc(-c2ccc(/C=C/c3ccc4c(c3)c3ccccc3n4-c3ccccc3)cc2)cc1 [PCzNA, N-phenyl-N-{4-[(E)-2-(4-{4-[(E)-2-(9-phenyl-9H-carbazol-3-yl)ethenyl]phenyl}phenyl)ethenyl]phenyl}naphthalen-1-amine]
